Experimental findings from US9475816B2, “Substituted-1,4-dihydropyrazolo[4,3-b]indoles” (TAKEDA PHARMACEUTICAL COMPANY LIMITED, priority 2012, dated 2016) are described below.

The target of experiment [1] is T1, human MetAP2 enzyme (Homo sapiens, UniProt P50579). Description: MetAP2 enzyme assay, MetAP2 enzyme complexed with cobalt ions. Conditions: MetAP2 Co pIC50, 10 μM CoCl2; -log(IC50), IC50 molar.
Experiment [2] addresses T1, human MetAP2 enzyme. Nature of the experiment: MetAP2 enzyme assay, MetAP2 enzyme complexed with manganese ions. Particulars: MetAP2 Mn pIC50, 10 μM MnCl2; -log(IC50), IC50 molar.

T1 sequence (P50579 whole entry): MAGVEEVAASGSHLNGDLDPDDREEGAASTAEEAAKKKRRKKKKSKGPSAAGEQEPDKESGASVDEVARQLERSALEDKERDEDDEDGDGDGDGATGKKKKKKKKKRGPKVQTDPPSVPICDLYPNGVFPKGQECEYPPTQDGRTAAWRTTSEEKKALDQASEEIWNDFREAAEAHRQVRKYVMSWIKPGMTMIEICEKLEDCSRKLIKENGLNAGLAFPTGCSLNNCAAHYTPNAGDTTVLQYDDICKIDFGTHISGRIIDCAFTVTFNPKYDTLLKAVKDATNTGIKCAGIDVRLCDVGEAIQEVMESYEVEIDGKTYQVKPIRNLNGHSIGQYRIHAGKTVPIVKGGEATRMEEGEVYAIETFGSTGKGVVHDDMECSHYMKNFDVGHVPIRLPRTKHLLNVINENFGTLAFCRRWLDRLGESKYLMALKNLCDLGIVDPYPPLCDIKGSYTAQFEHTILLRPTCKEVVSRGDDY

As to `Cc1nc(N2CCC(O)CC2)ncc1-n1c2ccc(F)cc2c2[nH]ncc21` [Example 29, 1-(5-(7-Fluoropyrazolo[4,3-b]indol-4(1H)-yl)-4-methylpyrimidin-2-yl)piperidin-4-ol], the IC50 against human MetAP2 enzyme [1] is 6.31 nM; at human MetAP2 enzyme [2] it was 7.94 nM.
Turning to `Cc1nc(NCCO)ncc1-n1c2ccc(F)cc2c2[nH]ncc21` [Example 74, 2-((5-(7-Fluoropyrazolo[4,3-b]indol-4(1H)-yl)-4-methylpyrimidin-2-yl)amino)ethanol], the values for the IC50 against human MetAP2 enzyme [1] and against human MetAP2 enzyme [2] were 10 nM and 7.94 nM, respectively.
Take `Cc1nc(C(=O)NCCO)ccc1-n1c2ccc(F)cc2c2[nH]ncc21` [Example 96, 5-(7-Fluoropyrazolo[4,3-b]indol-4(1H)-yl)-N-(2-hydroxyethyl)-6-methylpicolinamide]: the IC50 against human MetAP2 enzyme [1] is 20 nM; against human MetAP2 enzyme [2], 12.6 nM.
As to `Cc1nc2c(cc1-n1c3ccc(F)cc3c3[nH]ncc31)ncn2CCCO` [Example 80, 3-(6-(7-Fluoropyrazolo[4,3-b]indol-4(1H)-yl)-5-methyl-3H-imidazo[4,5-b]pyridin-3-yl)propan-1-ol], the values for the IC50 against human MetAP2 enzyme [1] and at human MetAP2 enzyme [2] were 20 nM and 31.6 nM, respectively.
The matching figures for `Cc1nc(C(=O)NC[C@@H](C)O)ccc1-n1c2ccc(F)cc2c2[nH]ncc21` [Example 123, 5-(7-Fluoropyrazolo[4,3-b]indol-4(1H)-yl)-N—((R)-2-hydroxypropyl)-6-methylpicolinamide]: 7.94 nM and 6.31 nM.
For `CNC(=O)c1cc(C)c(-n2c3ccc(F)cc3c3[nH]ncc32)cn1` [Example 113, 5-(7-Fluoropyrazolo[4,3-b]indol-4(1H)-yl)-N,4-dimethylpicolinamide], the results for the IC50 at human MetAP2 enzyme [1] and on human MetAP2 enzyme [2] were 12.6 nM and 10 nM, respectively.
The matching figures for `O=C(NCc1ccccc1)n1c2ccc(F)cc2c2[nH]ncc21` [Example 98, N-Benzyl-7-fluoropyrazolo[4,3-b]indole-4(1H)-carboxamide]: 501 nM and 158 nM.
In the case of `Cc1cc(C(N)=O)ncc1-n1c2ccc(F)cc2c2[nH]ncc21` [Example 107, 5-(7-Fluoropyrazolo[4,3-b]indol-4(1H)-yl)-4-methylpicolinamide], the IC50 against human MetAP2 enzyme [1] is 20 nM; on human MetAP2 enzyme [2], 12.6 nM.
The matching figures for `Cc1nc(N2CCC[C@@H](O)C2)ncc1-n1c2ccc(F)cc2c2[nH]ncc21` [Example 24, (3R)-1-(5-(7-Fluoropyrazolo[4,3-b]indol-4(1H)-yl)-4-methylpyrimidin-2-yl)piperidin-3-ol]: 6.31 nM and 3.98 nM.
On to `Cc1nc(N2C[C@@H](O)[C@H](O)C2)ncc1-n1c2ccc(F)cc2c2[nH]ncc21` [Example 76, (3R,4R)-1-(5-(7-Fluoropyrazolo[4,3-b]indol-4(1H)-yl)-4-methylpyrimidin-2-yl)pyrrolidine-3,4-diol], for which the IC50 against human MetAP2 enzyme [1] is 10 nM; on human MetAP2 enzyme [2], 6.31 nM.
On to `Cc1nc2c(cc1-n1c3ccc(F)cc3c3[nH]ncc31)ncn2C[C@H](O)CO` [Example 79, (2S)-3-(6-(7-Fluoropyrazolo[4,3-b]indol-4(1H)-yl)-5-methyl-3H-imidazo[4,5-b]pyridin-3-yl)propane-1,2-diol], for which the IC50 against human MetAP2 enzyme [1] is 15.8 nM; on human MetAP2 enzyme [2] it was 25.1 nM.
The matching figures for `Cc1nc(N2CCN(C)CC2)ncc1-n1c2ccc(F)cc2c2[nH]ncc21` [Example 60, 7-Fluoro-4-(4-methyl-2-(4-methylpiperazin-1-yl)pyrimidin-5-yl)-1,4-dihydropyrazolo[4,3-b]indole]: 3.16 nM and 10 nM.
In the case of `Cc1cc(C(=O)N2CCOCC2)ncc1-n1c2ccc(F)cc2c2[nH]ncc21` [Example 106, (5-(7-Fluoropyrazolo[4,3-b]indol-4(1H)-yl)-4-methylpyridin-2-yl)(morpholino)methanone], the IC50 at human MetAP2 enzyme [1] and at human MetAP2 enzyme [2] was 100 nM throughout.
`Cc1nc(C(=O)NCCCO)ccc1-n1c2ccc(F)cc2c2[nH]ncc21` [Example 118, 5-(7-Fluoropyrazolo[4,3-b]indol-4(1H)-yl)-N-(3-hydroxypropyl)-6-methylpicolinamide]: the IC50 at human MetAP2 enzyme [1] was 25.1 nM; on human MetAP2 enzyme [2], 10 nM.
The matching figures for `Cc1nc(C(=O)N(C)CCO)ccc1-n1c2ccc(F)cc2c2[nH]ncc21` [Example 120, 5-(7-Fluoropyrazolo[4,3-b]indol-4(1H)-yl)-N-(2-hydroxyethyl)-N,6-dimethylpicolinamide]: 15.8 nM and 15.8 nM.
The matching figures for `Cc1nc(C(=O)NCC(N)=O)ccc1-n1c2ccc(F)cc2c2[nH]ncc21` [Example 124, N-(2-Amino-2-oxoethyl)-5-(7-fluoropyrazolo[4,3-b]indol-4(1H)-yl)-6-methylpicolinamide]: 10 nM and 12.6 nM.
The matching figures for `Cc1cc2cn(C)nc2cc1-n1c2ccc(F)cc2c2[nH]ncc21` [Example 16, 4-(2,5-Dimethyl-2H-indazol-6-yl)-7-fluoro-1,4-dihydropyrazolo[4,3-b]indole]: 7.94 nM and 6.31 nM.
For `Fc1ccc2c(c1)c1[nH]ncc1n2Cc1ccccc1` [Example 1, 4-Benzyl-7-fluoro-1,4-dihydropyrazolo[4,3-b]indole], the IC50 on human MetAP2 enzyme [1] was 39.8 nM; against human MetAP2 enzyme [2], 31.6 nM.
For `Fc1cc2c3[nH]ncc3n(Cc3ccccc3)c2cc1F` [Example 2, 4-Benzyl-6,7-difluoro-1,4-dihydropyrazolo[4,3-b]indole], the values for the IC50 at human MetAP2 enzyme [1] and against human MetAP2 enzyme [2] were 100 nM and 50.1 nM, respectively.
The matching figures for `Cc1nc(NC[C@@H](C)O)ccc1-n1c2ccc(F)cc2c2[nH]ncc21` [Example 12, (2R)-1-((5-(7-Fluoropyrazolo[4,3-b]indol-4(1H)-yl)-6-methylpyridin-2-yl)amino)propan-2-ol]: 12.6 nM and 5.01 nM.
Regarding `Cc1nc(N[C@H](C)CO)ncc1-n1c2ccc(F)cc2c2[nH]ncc21` [Example 75, (2R)-2-((5-(7-Fluoropyrazolo[4,3-b]indol-4(1H)-yl)-4-methylpyrimidin-2-yl)amino)propan-1-ol], the values for the IC50 against human MetAP2 enzyme [1] and against human MetAP2 enzyme [2] were 7.94 nM and 5.01 nM, respectively.
The matching figures for `Cc1nc(N2CCC(CO)CC2)ncc1-n1c2ccc(F)cc2c2[nH]ncc21` [Example 59, (1-(5-(7-Fluoropyrazolo[4,3-b]indol-4(1H)-yl)-4-methylpyrimidin-2-yl)piperidin-4-yl)methanol]: 12.6 nM and 10 nM.
Consider `Cc1nc2c(cc1-n1c3ccc(F)cc3c3[nH]ncc31)ncn2C[C@@H](O)CO` [Example 90, (2R)-3-(6-(7-Fluoropyrazolo[4,3-b]indol-4(1H)-yl)-5-methyl-3H-imidazo[4,5-b]pyridin-3-yl)propane-1,2-diol], for which the values for the IC50 at human MetAP2 enzyme [1] and at human MetAP2 enzyme [2] were 15.8 nM and 5.01 nM, respectively.
Consider `Cc1cc2c(cc1F)c1[nH]ncc1n2-c1cc2[nH]cnc2nc1C` [Example 131, 7-Fluoro-6-methyl-4-(5-methyl-1H-imidazo[4,5-b]pyridin-6-yl)-1,4-dihydropyrazolo[4,3-b]indole], for which the results for the IC50 against human MetAP2 enzyme [1] and against human MetAP2 enzyme [2] were 12.6 nM and 7.94 nM, respectively.
On to `Cc1cc2nn(C)cc2cc1-n1c2ccc(F)cc2c2[nH]ncc21` [Example 15, 4-(2,6-Dimethyl-2H-indazol-5-yl)-7-fluoro-1,4-dihydropyrazolo[4,3-b]indole], for which the IC50 against human MetAP2 enzyme [1] and at human MetAP2 enzyme [2] was 10 nM in each case.
For the molecule `Cc1cc(C(=O)NCCO)ncc1-n1c2ccc(F)cc2c2[nH]ncc21` [Example 95, 5-(7-Fluoropyrazolo[4,3-b]indol-4(1H)-yl)-N-(2-hydroxyethyl)-4-methylpicolinamide], the half-maximal inhibitory concentration (IC50) was 31.6 nM at human MetAP2 enzyme [1] and 20 nM against human MetAP2 enzyme [2].
The matching figures for `Cc1c(-n2c3ccc(F)cc3c3[nH]ncc32)ccc2nn(C)cc12` [Example 9, 4-(2,4-Dimethyl-2H-indazol-5-yl)-7-fluoro-1,4-dihydropyrazolo[4,3-b]indole]: 10 nM and 6.31 nM.
In the case of `Cc1nc(N2CC[C@@H](O)C2)ccc1-n1c2ccc(F)cc2c2[nH]ncc21` [Example 6, (3R)-1-(5-(7-Fluoropyrazolo[4,3-b]indol-4(1H)-yl)-6-methylpyridin-2-yl)pyrrolidin-3-ol], the IC50 at human MetAP2 enzyme [1] and on human MetAP2 enzyme [2] was 6.31 nM each time.
Take `Cc1nc(N2CC[C@@H](O)C2)ncc1-n1c2ccc(F)cc2c2[nH]ncc21` [Example 58, (3R)-1-(5-(7-Fluoropyrazolo[4,3-b]indol-4(1H)-yl)-4-methylpyrimidin-2-yl)pyrrolidin-3-ol]: the IC50 is 15.8 nM on human MetAP2 enzyme [1] and 12.6 nM at human MetAP2 enzyme [2].
The matching figures for `Cc1c(-n2c3ccc(F)cc3c3[nH]ncc32)ccc2[nH]ncc12` [Example 71, 7-Fluoro-4-(4-methyl-1H-indazol-5-yl)-1,4-dihydropyrazolo[4,3-b]indole]: 12.6 nM and 10 nM.
As to `Cc1cc(C(=O)N2CC[C@@H](O)C2)ncc1-n1c2ccc(F)cc2c2[nH]ncc21` [Example 109, (5-(7-Fluoropyrazolo[4,3-b]indol-4(1H)-yl)-4-methylpyridin-2-yl)((R)-3-hydroxypyrrolidin-1-yl)methanone], the IC50 against human MetAP2 enzyme [1] and on human MetAP2 enzyme [2] was 25.1 nM throughout.
For the molecule `Cc1[nH]c(=O)ccc1-n1c2ccc(F)cc2c2[nH]ncc21` [Example 40, 5-(7-Fluoropyrazolo[4,3-b]indol-4(1H)-yl)-6-methylpyridin-2(1H)-one], the IC50 on human MetAP2 enzyme [1] and against human MetAP2 enzyme [2] was 15.8 nM throughout.
Consider `CNC(=O)c1ccc(-n2c3ccc(F)cc3c3[nH]ncc32)c(C)n1` [Example 119, 5-(7-Fluoropyrazolo[4,3-b]indol-4(1H)-yl)-N,6-dimethylpicolinamide], for which the IC50 on human MetAP2 enzyme [1] is 20 nM; against human MetAP2 enzyme [2], 10 nM.
Turning to `Cc1c(-n2c3ccc(F)cc3c3[nH]ncc32)ccc2ncnn12` [Example 70, 7-Fluoro-4-(5-methyl-[1,2,4]triazolo[1,5-a]pyridin-6-yl)-1,4-dihydropyrazolo[4,3-b]indole], the results for the half-inhibitory concentration (IC50) against human MetAP2 enzyme [1] and against human MetAP2 enzyme [2] were 20 nM and 10 nM, respectively.

What is called IC50 is the concentration that inhibits the measured activity by half.
